Laboratory results from patent publication US20240082282A1 (priority 2020, published 2024).

System: murine gut microbiome
Assay: Impact on the murine fecal microbiome (16S rRNA sequencing)
Conditions: mouse, in vivo
Description: Stool samples were collected and V4 region of the 16s rRNA gene was amplified using primers and sequenced (IonTorrent).
Fecal pellets were collected 3 days before and 3 days after antibiotic treatment and were stored at −80° C. in PBS. Sequencing of a stool pellet from each mouse from before and after treatment was performed by MR DNA (www.mrdnalab.com, Shallowater, TX, USA) on an Ion Torrent PGM. Using PCR primers, the V4 variable region of the 16SrRNA gene was amplified in a single-step 30 cycle PCR with the HotStarTaq Plus Master Mix Kit (Qiagen, USA). The following conditions were used: 94° C. for 3 minutes and 30 cycles of 94° C. for 30 seconds, 53° C. for 40 seconds and 72° C. for 1 minute, then a final elongation step for 5 minutes at 72° C. […] Barcodes and primers and then sequences<150 bp were removed. Further, sequences with homopolymer runs exceeding 6 bp and sequences with ambiguous calls were removed. The sequences were then denoised, OTUs were generated, and chimeras were removed; OTUs were clustered at 3% divergence. Taxonomic classification was performed using BLASTn against a database derived from RDPII available at www.rdp.cme.msu.edu) and NCBI (www.ncbi.nlm.nih.gov). The change in relative abundance of the most abundant genera from before to after treatment of each individual mouse was reported. Further, raw sequences were processed in Qiita (Gonzalez, A., et al. (2018). Nat Methods 15, 796-798; the contents of which are herein incorporated by reference in its entirety) and were demultiplexed, trimmed to 100 bp, and closed reference OTU picking was performed against the Greengenes database at 97% similarity (McDonald, D. et al. (2012). ISME J 6, 610-618; the contents of which are herein incorporated by reference in its entirety). The alpha diversity based on the Simpson index was calculated in Qiita. The change in the Simpson index was calculated for the fecal microbiome of each mouse from before to after treatment. Statistical significance was calculated using a one-way ANOVA with Tukey's multiple comparisons test (p<0.05).

CC1(C)S[C@@H]2[C@H](NC(=O)[C@H](N)c3ccccc3)C(=O)N2[C@H]1C(=O)O [Ampicillin, reference compound]
Changes in the composition of the microbiota: significant changes
